These results are taken from patent US8293777B2, “Angiotensin II receptor antagonists” (Merck Sharp & Dohme, Corp., priority 2008, dated 2012).

In general, EC50 refers to the midpoint of the concentration-response curve.

Assay [1] has as its system conscious telemetered dogs. Nature of the assay: Systolic blood pressure lowering, oral administration to conscious telemetered dogs. It counts as in vivo. To be noted: orally administered at 3 mpk. The text has this: Several examples were studied for systolic blood pressure lowering when orally administered to conscious telemetered dogs at 3 mpk (see Data Table 1).

The test system of assay [2] is isolated rabbit thoracic aorta preparations. The experiment in a line: Vessel relaxation in isolated rabbit thoracic aorta preparations. It counts as cell-based. The note with it: Oryctolagus cuniculus; rabbit aortic rings precontracted with noradrenaline, functional endothelium. As to the method: The ability of the compounds to induce vasorelaxation was tested in vitro in isolated rabbit thoracic aorta preparations (Wanstall J. C. et al., Br. J. Pharmacol., 134:463-472, 2001). Male New Zealand rabbits were anaesthetized with thiopental-Na (50 mg/kg, iv), sacrificed by exsanguinations and then the thorax was opened and the aorta dissected. Aortic ring preparations (4 mm in length) were set up in physiological salt solution (PSS) at 37° C. in small organ chambers (5 ml). The composition of PSS was (mM): NaCl 130, NaHCO3 14.9, KH2PO4 1.2, MgSO4 1.2, HEPES 10, CaCl2, ascorbic acid […] and glucose 1.1 (95% O2/5% CO2; pH 7.4). Each ring was mounted under 2 g passive tension. Isometric tension was recorded with a Grass transducer (Grass FT03) attached to a BIOPAC MP150 System. Preparations were allowed to equilibrate for 1 h, and then contracted submaximally with noradrenaline (NA, 1 μM) and, when the contraction was stable, acetylcholine (ACh, 10 μM) was added. A relaxant response to ACh indicated the presence of a functional endothelium. […] When a stable precontraction was reached, a cumulative concentration-response curve to either of the vasorelaxant agents was obtained in the presence of a functional endothelium. Each arterial ring was exposed to only one combination of inhibitor and vasorelaxant. […]
Example 2 was evaluated for vessel relaxation.

In the case of `CCOc1nc2cccc(C(=O)OC(C)OC(=O)[C@@H]3C[C@H](OC)[C@@H](O[N+](=O)[O-])C3)c2n1Cc1ccc(-c2ccccc2-c2nnn[nH]2)cc1` (stereo partly drawn) [Example 2, D1, 1-({[(1R,3S,4S)-3-methoxy-4-(nitrooxy)cyclopentyl]carbonyl}oxy)ethyl 2-ethoxy-1-{[2′-(1H-tetrazol-5-yl)biphenyl-4-yl]methyl}-1H-benzimidazole-7-carboxylate], the “Approximate change in systolic blood pressure” value (“Approximate change” below) is −15 mm Hg in assay [1] (1-6 h, 3 mg/kg); −11 mm Hg in assay [1] (6-12 h, 3 mg/kg); −1 mm Hg in assay [1] (12-18 h, 3 mg/kg).
As to `CCOc1nc2cccc(C(=O)OC(C)OC(=O)[C@@H]3C[C@H](OC)[C@@H](O[N+](=O)[O-])C3)c2n1Cc1ccc(-c2ccccc2-c2nnn[nH]2)cc1` (stereo partly drawn) [Example 2, D2, 1-({[(1R,3S,4S)-3-methoxy-4-(nitrooxy)cyclopentyl]carbonyl}oxy)ethyl 2-ethoxy-1-{[2′-(1H-tetrazol-5-yl)biphenyl-4-yl]methyl}-1H-benzimidazole-7-carboxylate], in assay [2], the EC50 is above 25 µM. The “Approximate change” value in assay [1] (1-6 h, 3 mg/kg) is on record as −19 mm Hg; in assay [1] (6-12 h, 3 mg/kg), −12 mm Hg; in assay [1] (12-18 h, 3 mg/kg), −5 mm Hg.
Consider `CCCCC(=O)N(Cc1ccc(-c2ccccc2-c2nnn[nH]2)cc1)[C@H](C(=O)O[C@@H](C)OC(=O)[C@@H]1C[C@H](OC)[C@@H](O[N+](=O)[O-])C1)C(C)C` [Example 5, (1S)-1-({[(1R,3S,4S)-3-methoxy-4-(nitrooxy)cyclopentyl]carbonyl}oxy)ethyl N-pentanoyl-N-{[2′-(1H-tetrazol-5-yl)biphenyl-4-yl]methyl}-L-valinate], for which the “Approximate change” value in assay [1] (1-6 h) is listed as −8 mm Hg; in assay [1] (6-12 h), −2 mm Hg; in assay [1] (12-18 h), 8 mm Hg.
Consider `CCCCc1nc(Cl)c(C(=O)O[C@H](C)OC(=O)[C@@H]2C[C@H](OC)[C@@H](O[N+](=O)[O-])C2)n1Cc1ccc(-c2ccccc2-c2nnn[nH]2)cc1` [Example 7], for which the “Approximate change” value is reported as −9 mm Hg in assay [1] (1-6 h), −1 mm Hg in assay [1] (6-12 h) and 2 mm Hg in assay [1] (12-18 h).
